Measurements from patent US12630542B2, “Compounds and their use as therapeutically active substances in the treatment and/or prevention of diseases involving the retinal pigment epithelium” (ENDOGENA THERAPEUTICS, INC., priority 2020, dated 2026).

Test system: iPSC-fRPE cells
Experiment: Compound screen for RPE pigmentation in iPSC-fRPE cells (light absorbance at 510 nm)
Assay type: cell-based, human
Details: for Relative Pigmentation: test compound 5 μM in 0.1% DMSO, 32 days, absorbance at 510 nm, relative to plate internal DMSO controls (control = 1); for pigmentation of RPE cells / activity, result in words: qualitative statement
Method: Induced pluripotent stem cell-derived fetal RPE (iPSC-fRPE) cells acquired from the University of California, Santa Barbara, were generated from human fetal RPE cells that were isolated and reprogramed to iPSC, then differentiated and sorted for cellular markers to collect RPE progenitors. Vials were transported frozen on dry ice and stored in minus 80° C.
For the phenotypic screens, iPSC-fRPE cells were thawed and cultured in Matrigel-coated flasks with N1VA media containing 1×MEM solution supplemented with 2.2 g/L Sodium Bicarbonate, 0.25 mg/ml Taurine, 0.02 ug/ml Hydrocortisone, 0.013 ug/ml Triiodo Thyronine, 0.1 ug/ml Lipoic acid, 1% MEM Non-Essential Amino Acids, 1% Penicillin/Streptomycin, 2% Neurocult SM1 supplement and 1% N1 supplement. For the initial cultures, Thiazovivin was added to the media at 2 uM for the first 24 hr of incubation, after which the media was replaced with fresh N1VA media for additional three-day incubation at 37° C. with 5% CO2.
iPSC-fRPE cells were plated with N1VA media at a density of 10,000 cells per well in Matrigel-coated 96-well plates and cultured for 24 hr prior to the treatment with test compounds at a final concentration of 5 μM in 0.1% DMSO. Internal controls for each test plate were (a) 0.1% DMSO as a negative control and (b) 0.1% DMSO+10 ng/ml human recombinant bFGF (STEMCELL) as a positive control. To identify hits that promote RPE pigmentation, cells were maintained for a period of 32 days and treated with medium containing the test or control compounds according to the media exchange regimen (FIG. 1). The degree of pigmentation was quantified by measuring the light absorbance at 510 nm with Cytation5 imaging reader (BIOTEK). Compounds that increased the normalized absorbance endpoint by more than three standard deviations over the average DMSO readout per plate were considered as hits. Pigmentation values are finally reported relative to plate internal DMSO controls.

Row | Compound | Relative Pigmentation | pigmentation of RPE cells / activity, result in words
1 | N-(3-chloro-4-(oxazol-5-yl)phenyl)-1,2,3,4-tetrahydronaphthalene-2-carboxamide [Compound 5] | 1.18 | 
2 | O=C(Nc1ccc(-c2cnco2)c(Cl)c1)C1CCc2ccccc21 (racemic) [Compound 6, N-(3-chloro-4-(oxazol-5-yl)phenyl)-2,3-dihydro-1H-indene-1-carboxamide] | 1.86 | 
3 | O=C(Nc1ccc(-c2cnco2)c(Cl)c1)C1Cc2ccccc2C1 [Compound 7, N-(3-chloro-4-(oxazol-5-yl)phenyl)-2,3-dihydro-1H-indene-2-carboxamide] | 2.92 | excellent results
4 | O=C(Nc1ccc(-c2cnco2)c(Cl)c1)C1COc2ccccc2C1 (single isomer, unassigned; (-)) [Compound 1, (−)-N-(3-chloro-4-(1,3-oxazol-5-yl)phenyl)chromane-3-carboxamide] | 3.05 | excellent results
5 | O=C(Nc1ccc(-c2cnco2)c(Cl)c1)C1COc2ccccc2C1 (single isomer, unassigned; (+)) [Compound 2, (+)-N-(3-chloro-4-(1,3-oxazol-5-yl)phenyl)chromane-3-carboxamide] | 1.68 | 
6 | O=C(Nc1ccc(-c2cnco2)c(Cl)c1)C1Cc2ccccc2CO1 (racemic) [Compound 3, N-(3-chloro-4-(oxazol-5-yl)phenyl)isochromane-3-carboxamide] | 1.66 | 
7 | O=C(Nc1ccc(-c2cnco2)c(Cl)c1)C1CCOc2ccccc21 (racemic) [Compound 4, N-(3-chloro-4-(oxazol-5-yl)phenyl) chromane-4-carboxamide] | 2.65 | 
